Row | melting point [°C] | SMILES
1 | 207 | O=C1CCC(c2ccccc2)(c2ccccc2)[C@@H]2CN(C(=O)Cc3ccccc3C(F)(F)F)C[C@H]12 (racemic)
2 | 250 to 252 | CCOC(=O)N1CCn2c(nc(-c3ccncn3)cc2=O)C(NC(=O)c2ccccn2)C1 (racemic)
3 | 164 to 166 | CC1(C)Cc2ccc(C#N)cc2N(C(=O)Nc2cccnc2)C1
4 | 80 to 82 | CC1=Nc2ccc(C)cc2C(=O)C1
5 | 109 to 110 | CCC(Nc1ccc(OC)nc1)n1nnc2ccccc21 (stereo not drawn)
6 | 186 to 187 | NC(=S)c1c(Cl)cncc1Cl
7 | 190 to 191 | COc1cc(COc2nn(-c3ccccc3)cc2C(N)=O)ccc1OCc1nc(-c2ccccc2)oc1C
8 | 188 | CC(SC1COC(c2ccc(C(=O)Nc3ccc(CC#N)cc3)cc2)OC1)C(O)(Cn1cncn1)c1ccc(F)cc1F (stereo not drawn)
9 | 154 to 157 | O=C1c2ccccc2C(=O)N1C1CCN(Cc2ccccc2)CC1
10 | 136 to 137 | Cc1n[nH]c2cc(-c3ccc4nnn(Cc5ccc6ncccc6c5)c4n3)ccc12
11 | 119 | CCCOc1nc(-c2ccco2)c2ncn(Cc3ccc(OC)cc3)c2n1
12 | 258 to 260 | N#Cc1cnc2c(sc3c([N+](=O)[O-])cccc32)c1Cl
13 | 179 to 181 | COc1ccc(-c2nc(Sc3ccc(C(F)(F)F)cc3)[nH]c2-c2ccc(OC)cc2)cc1
14 | 194 | COC(=O)c1ccc(NC(C)=O)c(CC(=O)O)c1
15 | 238 | N#Cc1cc2c(c(C(=O)O)c1)NCCC2
16 | 181 to 183 | CON=Cc1nc2c(N)nc3ccccc3c2n1CC(C)C
17 | 270 | CC(=O)Nc1nc2ccc(S(=O)(=O)n3c(CCCC(=O)O)cc4nc(Cl)ccc43)cc2s1
18 | 108 to 109 | O=S(Cc1cccs1)c1ncc(Br)cn1 (stereo not drawn)
19 | 153 to 154 | Cc1ccc(S(=O)(=O)c2nc(Cl)c([N+](=O)[O-])s2)cc1
20 | 104 to 108 | COc1cc(OCC2CCCCC2)ccc1/C=C/c1cc(/C=C/c2ccc3cc[nH]c3c2)[nH]n1
21 | 127 | CC(C)NC(=O)c1ccc(F)c2c1CC(N(CCCc1c[nH]c3ccc(F)cc13)C1CCC1)CO2 (stereo not drawn)

Row | melting point [°C] | SMILES
22 | 163 to 165 | COc1cc(S(=O)(=O)N2CCN(C(=O)C=C(c3ccccc3)c3ccccc3)CC2)cc(OC)c1OC
23 | 128 | CC(=O)N1CCC(C)(C)c2cc(F)cc(CCN3CCN(c4nsc5ccc(F)cc45)CC3)c21
24 | 124 to 126 | COc1ccc(N(C)c2nccc(-c3ccncc3)n2)cc1
25 | 207 to 209 | CCOC(=O)c1ccc(COCc2csc3nc(C(=O)NCc4cccc(SC)c4)[nH]c(=O)c23)cc1
26 | 130 | COc1c(NOCc2ccccc2)ccnc1C
27 | 78 to 85 | COC(=O)c1ccc(CNC(=O)C2Cc3ccccc3N2S(=O)(=O)c2ccc(-c3cccc(C(F)(F)F)c3)cc2)c(OC)c1 (stereo not drawn)
28 | 218 | OC1CSC(Oc2ccc(Cl)nc2)C(O)C1O (stereo not drawn)
29 | 135 to 137 | CC(C)(C)C(NC(=O)Cc1ccc(Cl)cc1)NC(=NC#N)Nc1cccc2cnsc12 (stereo not drawn)
30 | 209 to 211 | COc1cccc(-c2cn3cc(C(=O)NCCCCCCC(=O)NO)sc3n2)c1
31 | 120 to 121 | CCCCN(C)C(=O)CS(=O)CCCCCOc1ccc(C2=C(c3ccccc3)CCCc3ccccc32)cc1 (stereo not drawn)
32 | 246 to 248 | O=C(O)COc1cccc(-c2n[nH]c3c2Cc2ccccc2-3)c1
33 | 112 to 113 | COc1cc2c(Cl)c(C#N)cnc2cc1OS(=O)(=O)C(F)(F)F
34 | 132 to 134 | CCn1cc(-c2ccc3nnn(Cc4ccc5ncccc5c4)c3n2)cn1
35 | 97 to 99 | O=c1cc(NCCN2CCC(c3noc4cc(F)ccc34)CC2)cn[nH]1
36 | 155 | COc1ccc2[nH]cc(C3CCN(CCCCN4C(=O)c5ccccc5C4=O)CC3)c2c1
37 | 71 to 72 | O=C(F)N(SN1CCOCC1)c1ccccc1
38 | 122 to 124 | Clc1ccc2nc(CN3CCN(c4ccc(Cl)c(Cl)c4)CC3)cn2c1
39 | 103 to 104 | Cc1oc(-c2ccccc2)nc1COc1cccc(/C=C/C=O)c1
40 | 169 to 174 | Cc1c(NC(=O)c2ccc(OC[C@@H]3CCCO3)cc2)ccc2cc(CN3CCC(C)(O)CC3)cnc12
41 | 69 to 71 | CSc1ccc(C(=O)C(C)CC(=O)O)cc1 (stereo not drawn)
42 | 270 to 273 | O=C1Nc2ccccc2C1c1nc(Cl)nc2nn(C3CCCC3)cc12 (stereo not drawn)

Row | melting point [°C] | SMILES
43 | 194 to 195 | CCOC(=O)c1cc2cc(OCCCS(C)(=O)=O)cc(NS(=O)(=O)c3ccccn3)c2[nH]1
44 | 116 to 119 | O=C(O)c1cccc(Oc2ccc(C(F)(F)F)cc2Cl)c1
45 | 65 to 67 | COC(=O)C1=C(C)NC(C)=C(C(=O)OCCOc2cccc(CCNCC(O)COc3ccc(COCCOC(C)C)cc3)c2)C1c1cccc([N+](=O)[O-])c1 (stereo not drawn)
46 | 105 to 106 | O=C(c1ccc(OC2CCOCC2)cc1)c1ccc([N+](=O)[O-])cc1
47 | 87.6 to 89 | CC1=C(c2ccccc2)C(=O)N(C(C)(C)C(O)c2cc(F)cc(F)c2)CO1 (stereo not drawn)
48 | 194 | CC1(C)Cc2c(N)ccc(O)c2O1
49 | 145 to 147 | NC(=O)N1CCC(c2nn(-c3ccc(F)cc3)c3ccccc23)CC1
50 | 164 to 166 | NC1CCC(CC2CCC(Nc3ncc4ncnc(Nc5ccc(F)c(Cl)c5)c4n3)CC2)CC1 (stereo not drawn)
51 | 63 to 65 | COC(=O)c1cccc(-c2cccc(N)c2)c1
52 | 200 | COc1cccc2c1CCCC2=NNc1nc(-c2ccc(Cl)cc2Cl)cs1
53 | 106 to 107 | COc1cc2c(cc1OCc1ccccc1)CCN(Cc1cccc(OC)c1OC)C2
54 | 105 to 106 | CC(C)OC(=O)n1ncc2cc(C(O)(c3cn(C)c4ccccc34)C(F)(F)F)ccc21 (stereo not drawn)
55 | 189 to 190 | Oc1csc(Cc2n[nH]c3ccccc23)c1
56 | 65 to 67 | CCCOc1nc2sc(Cl)cc2c(=NC(=O)OC)n1CCC
57 | 180 to 181 | Cn1cc(CS(C)=O)c(=O)c2ccc(Cl)cc21 (stereo not drawn)
58 | 232 to 233 | Cc1cc(I)cc2c(=O)[nH]oc12
59 | 152 | NC(=S)c1cc(Oc2ccc(C(F)(F)F)cc2Cl)ccc1[N+](=O)[O-]
60 | > 300 | CCOC(=O)c1ncn2c1c(=O)[nH]c1cc(S(C)(=O)=O)ccc12
61 | 167 to 168 | Cc1nc(C)c(Cl)c(NCc2ccc(O)c(OC(F)F)c2)n1
62 | > 300 | O=C(Nc1ccc(C(=O)O)cc1)OCc1cn(-c2cc3cc(C(=O)O)c(=O)[nH]c3cc2[N+](=O)[O-])cn1
63 | 101 to 105 | COc1ccccc1CCn1nnnc1-c1ccc2c(c1)C=CC(C)(C)O2

Row | SMILES | melting point [°C]
64 | Cc1cccc2nc(CSc3ncnc4[nH]cnc34)n(-c3ccccc3F)c(=O)c12 | 152
65 | CN(C)Cc1nc(C=O)nn1-c1ccc(Cl)cc1C(=O)c1ccccc1 | 178 to 181
66 | CCOc1ccc(-c2ccc(C#CC3(O)CN4CCC3CC4)cc2)cc1 (stereo not drawn) | 255 to 256
67 | CN(C)c1cccc(OC(=O)NC2C(=O)N(CCC3C4CC5CC(C4)CC3C5)c3ccccc3N(c3ccccc3)C2=O)c1 (stereo not drawn) | 188 to 189
68 | O=Cc1c(O)cc(O)cc1CCl | 164 to 166
